Data taken from patent publication US20230243002A1, “ASSAY OT DETECT VIRUS” (priority 2020, published 2023).

Columns and labels:
[1] = tested on: luminescence output of luciferase; assay: Compounds and reagents that inhibit or interfere with the ID-Oligo luminescence methods; format: biochemical
From the text: Various compounds and components may interfere with the methods described herein. […] Thus, in some embodiments, the sample is free of compounds and components that inhibit the luminescence output of luciferase. Accordingly, the sample may be free of sodium-azide, sodium-citrate, heparin, EDTA, EGTA, proteases, phosphates, 2,2′-azino-di-(3-ethylbenzothiazoline)-6-sulfonic acid (ABTS), and/or butylated hydroxytoluene (BHT). In various related aspects, the present application also relates to devices and kits for performing the methods described herein. Such kits contain monitors, reagents and procedures that can be utilized in a clinical or research setting or adapted for either the field laboratory or on-site use. In particular, kits comprising the disclosed reagents used in practicing the methods described herein include any of a number of means for detecting the captured target nucleic acid molecule and measuring the bioluminescent signal produced subsequent to target capture, along with appropriate instructions, are contemplated. Suitable kits comprise reagents sufficient for performing an assay, or one or more independent steps of an assay, to detect a target nucleic acid molecule, as described herein above.

luciferase = luciferase (Photinus pyralis, UniProt P08659); assay: Background LU of reaction with only luciferase and no viral RNA, dATP versus dATPαS; format: biochemical
Sequence of luciferase (P08659 whole entry): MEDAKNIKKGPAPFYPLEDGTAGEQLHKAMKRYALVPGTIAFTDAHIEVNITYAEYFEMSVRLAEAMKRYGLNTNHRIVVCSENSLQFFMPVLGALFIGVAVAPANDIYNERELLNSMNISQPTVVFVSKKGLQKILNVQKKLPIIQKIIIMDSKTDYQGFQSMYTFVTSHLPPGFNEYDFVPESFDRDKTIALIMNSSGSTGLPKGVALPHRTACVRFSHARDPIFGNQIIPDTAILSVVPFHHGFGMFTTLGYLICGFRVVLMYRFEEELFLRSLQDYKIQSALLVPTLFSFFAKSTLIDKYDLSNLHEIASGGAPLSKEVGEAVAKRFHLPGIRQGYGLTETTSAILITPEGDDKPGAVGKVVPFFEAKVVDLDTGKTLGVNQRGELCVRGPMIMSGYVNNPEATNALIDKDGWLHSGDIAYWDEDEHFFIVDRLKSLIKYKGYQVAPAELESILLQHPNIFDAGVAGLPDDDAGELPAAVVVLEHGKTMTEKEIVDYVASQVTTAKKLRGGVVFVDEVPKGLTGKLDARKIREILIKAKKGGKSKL

[2] = tested on: SARS-CoV-2, USA-WA1/2020 RNA; assay: ID-Oligos assay signal output with dC/T/G only or supplemented with dATPαS; format: biochemical; conditions: supplemented with 0.1 mM dATPαS versus only dT/G/C
[3] = tested on: coupled ATPS-luciferase reaction; conditions: 0.04% Na-Azide, LU measured for 200 seconds

Row | Compound | inhibit or interfere with the methods described herein [1] | also measured
1 | heparin | inhibit or interfere | 
2 | O=C(O)CN(CCN(CC(=O)O)CC(=O)O)CC(=O)O [EDTA] | inhibit or interfere | 
3 | O=C([O-])CC(O)(CC(=O)[O-])C(=O)[O-].[Na+].[Na+].[Na+] [Na-citrate] | inhibit or interfere | 
4 | O=C(O)CN(CCOCCOCCN(CC(=O)O)CC(=O)O)CC(=O)O [EGTA] | inhibit or interfere | 
5 | Nc1ncnc2c1ncn2[C@H]1C[C@H](O)[C@@H](COP(O)(=S)OP(=O)(O)OP(=O)(O)O)O1 (some centres unmarked) [dATPαS] |  | improved signal-to-noise ratio (luciferase): ~2 orders of magnitude; LU background (luciferase; 0.1 mM/1 mM, luciferase only, no viral RNA): reduction; reaction slope [2]: Higher slope values
6 | CCn1c(=NN=c2sc3cc(S(=O)(=O)O)ccc3n2CC)sc2cc(S(=O)(=O)O)ccc21 [ABTS, 2,2′-azino-di-(3-ethylbenzothiazoline)-6-sulfonic acid] | inhibit or interfere | 
7 | [N-]=[N+]=[N-].[Na+] [Na-azide] | inhibit or interfere | effect on the luminescence output of the coupled ATPS-luciferase reaction [3]: inhibitory effect
8 | Cc1cc(C(C)(C)C)c(O)c(C(C)(C)C)c1 [BHT, butylated hydroxytoluene] | inhibit or interfere | 
